Measurements: PubChem BioAssay AID256 (DTP/NCI, 2004)
Values joined by “and” are separate entries in the source; they are usually repeats but may differ in a detail not shown here. Identical values can stand only once. Toxic doses and inconclusive results are not listed.

Tested on: CD2F1 mice, L1210 leukemia ip, survival T/C
Assay: NCI In Vivo Anticancer Drug Screen. Data for tumor model L1210 Leukemia (intraperitoneal) in CD2F1 (CDF1) mice
Conditions: endpoint: mean survival time, higher = longer survival
In short: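 Mice carrying a transplanted tumor received test compound or vehicle alone. The value is the measurement in the treated group divided by that in the vehicle-treated control group.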

[1] = dose: 100.0 mg/kg/injection, schedule: Q01DX001 (ip), vehicle: saline with Tween-80
[2] = dose: 200.0 mg/kg/injection, schedule: Q01DX001 (ip), vehicle: saline with Tween-80
[3] = dose: 400.0 mg/kg/injection, schedule: Q01DX001 (ip), vehicle: saline with Tween-80
[4] = dose: 100.0 mg/kg/injection, schedule: Q04DX003 (ip), vehicle: saline with Tween-80
[5] = dose: 200.0 mg/kg/injection, schedule: Q04DX003 (ip), vehicle: saline with Tween-80
[6] = dose: 400.0 mg/kg/injection, schedule: Q04DX003 (ip), vehicle: saline with Tween-80
[7] = dose: 100.0 mg/kg/injection, schedule: Q01DX009 (ip), vehicle: saline with Tween-80
[8] = dose: 200.0 mg/kg/injection, schedule: Q01DX009 (ip), vehicle: saline with Tween-80
[9] = dose: 100.0 mg/kg/injection, schedule: Q01DX009 (ip), vehicle: Klucel (hydroxypropylcellulose) (HPC)
[10] = dose: 200.0 mg/kg/injection, schedule: Q01DX009 (ip), vehicle: Klucel (hydroxypropylcellulose) (HPC)
[11] = dose: 25.0 mg/kg/injection, schedule: Q04DX003 (ip), vehicle: saline with Tween-80
[12] = dose: 12.5 mg/kg/injection, schedule: Q04DX003 (ip), vehicle: saline with Tween-80

CC(CCC(=O)O)C1CCC2C3CCC4CCCCC4(C)C3CCC12C (configuration not stated)
T/C [1]: 98 % of control | T/C [2]: 93 % of control | T/C [3]: 92 % of control

CCOCCC(=O)NCc1ccccc1
T/C [4]: 100 % of control | T/C [5]: 98 % of control | T/C [6]: 102 % of control

Cc1ccc(C(C)C)cc1NC(=O)c1ccccc1C(=O)O
T/C [4]: 95 % of control | T/C [5]: 95 % of control | T/C [6]: 87 % of control

O=C1CCCCC1(c1ccccc1)c1ccccc1
T/C [7]: 101 % of control | T/C [4]: 101 % of control | T/C [8]: 97 % of control | T/C [5]: 99 % of control | T/C (dose: 400.0 mg/kg/injection, schedule: Q01DX009 (ip), vehicle: saline with Tween-80): 98 % of control | T/C [6]: 97 % of control

Cc1ccc(S(=O)(=O)Nc2ccc(Cl)c(Cl)c2)cc1
T/C [1]: 104 % of control | T/C [9]: 105 % of control | T/C [2]: 101 % of control | T/C [10]: 95 % of control | T/C [3]: 103 % of control

CC(=O)N(C)N(Cc1ccc(C#N)cc1)C(C)=O
T/C (dose: 25.0 mg/kg/injection, schedule: Q01DX009 (ip), vehicle: Klucel (hydroxypropylcellulose) (HPC)): 97 % of control | T/C (dose: 50.0 mg/kg/injection, schedule: Q01DX009 (ip), vehicle: Klucel (hydroxypropylcellulose) (HPC)): 93 % of control | T/C [9]: 97 % of control | T/C [10]: 97 % of control | T/C (dose: 400.0 mg/kg/injection, schedule: Q01DX009 (ip), vehicle: Klucel (hydroxypropylcellulose) (HPC)): 98 % of control

N#Cc1ccccc1C#N
T/C [11]: 97 % of control

[Co+3].[NH-]CC(=O)O.[NH-]CC(=O)O.[NH-]CC(=O)O
T/C (dose: 25.0 mg/kg/injection, schedule: Q04DX002 (ip), vehicle: saline with Tween-80): 104 % of control and 101 % of control | T/C (dose: 50.0 mg/kg/injection, schedule: Q04DX002 (ip), vehicle: saline with Tween-80): 104 % of control and 96 % of control | T/C (dose: 100.0 mg/kg/injection, schedule: Q04DX002 (ip), vehicle: saline with Tween-80): 104 % of control and 106 % of control | T/C (dose: 200.0 mg/kg/injection, schedule: Q04DX002 (ip), vehicle: saline with Tween-80): 117 % of control

C/C(=C/c1ccc([N+](=O)[O-])cc1)C(=O)O
T/C [1]: 103 % of control | T/C [2]: 100 % of control | T/C [3]: 103 % of control

Cn1c(=O)c2[nH]c(-c3ccc4c(c3)OCO4)nc2n(C)c1=O
T/C [4]: 89 % of control | T/C [5]: 92 % of control | T/C [6]: 88 % of control

COc1ccccc1[As](=O)(O)CC(O)COc1ccccc1 (configuration not stated)
T/C (dose: 6.25 mg/kg/injection, schedule: Q04DX003 (ip), vehicle: saline with Tween-80): 103 % of control | T/C [12]: 104 % of control | T/C [11]: 113 % of control

c1ccc(CCN2COc3c(ccc4cccnc34)C2)cc1
T/C [12]: 102 % of control | T/C [11]: 91 % of control | T/C (dose: 50.0 mg/kg/injection, schedule: Q04DX003 (ip), vehicle: saline with Tween-80): 98 % of control

Cc1ccc(S(=O)(=O)OC2CNP(=O)(N(CCCl)CCCl)OC2)cc1 (configuration not stated)
T/C (dose: 25.0 mg/kg/injection, schedule: Q01DX001 (ip), vehicle: DMSO): 96 % of control | T/C (dose: 50.0 mg/kg/injection, schedule: Q01DX001 (ip), vehicle: DMSO): 100 % of control | T/C (dose: 100.0 mg/kg/injection, schedule: Q01DX001 (ip), vehicle: DMSO): 94 % of control | T/C (dose: 200.0 mg/kg/injection, schedule: Q01DX001 (ip), vehicle: DMSO): 100 % of control | T/C (dose: 400.0 mg/kg/injection, schedule: Q01DX001 (ip), vehicle: DMSO): 98 % of control | T/C (dose: 800.0 mg/kg/injection, schedule: Q01DX001 (ip), vehicle: DMSO): 91 % of control

COc1ccc2nc3cc(Cl)ccc3c(Nc3cccc(NC(C)=O)c3)c2n1
T/C (dose: 25.0 mg/kg/injection, schedule: Q01DX009 (ip), vehicle: other): 102 % of control | T/C (dose: 50.0 mg/kg/injection, schedule: Q01DX009 (ip), vehicle: other): 96 % of control | T/C (dose: 100.0 mg/kg/injection, schedule: Q01DX009 (ip), vehicle: other): 86 % of control

c1cc2[nH]c3ccncc3c2cn1
T/C (dose: 50.0 mg/kg/injection, schedule: Q01DX009 (ip), vehicle: saline sonified): 98 % of control | T/C (dose: 100.0 mg/kg/injection, schedule: Q01DX009 (ip), vehicle: saline sonified): 101 % of control

c1cc2c(c(NC3=NCCN3)c1)CCCC2
T/C (dose: 12.5 mg/kg/injection, schedule: Q01DX009 (ip), vehicle: saline with Tween-80): 96 % of control | T/C (dose: 25.0 mg/kg/injection, schedule: Q01DX009 (ip), vehicle: saline with Tween-80): 100 % of control | T/C (dose: 50.0 mg/kg/injection, schedule: Q01DX009 (ip), vehicle: saline with Tween-80): 111 % of control

CCOC(=O)c1cn[nH]c1/N=C/N(C)C
T/C [1]: 98 % of control | T/C [2]: 104 % of control | T/C [3]: 106 % of control

NSc1ccc([N+](=O)[O-])cc1
T/C (dose: 25.0 mg/kg/injection, schedule: Q01DX001 (ip), vehicle: other): 270 % of control | T/C (dose: 50.0 mg/kg/injection, schedule: Q01DX001 (ip), vehicle: other): 204 % of control

CC(=O)C(C(C)=O)C(=[C-]C(F)(F)F)C(F)(F)F.CC(=O)C(C(C)=O)C(=[C-]C(F)(F)F)C(F)(F)F.[Pd+2]
T/C (dose: 3.13 mg/kg/injection, schedule: Q04DX003 (ip), vehicle: distilled water + Tween-80): 102 % of control | T/C (dose: 6.25 mg/kg/injection, schedule: Q04DX003 (ip), vehicle: distilled water + Tween-80): 96 % of control | T/C (dose: 12.5 mg/kg/injection, schedule: Q04DX003 (ip), vehicle: distilled water + Tween-80): 102 % of control

CCOC(=O)/C(C#N)=C/NC(N)=O
T/C (dose: 50.0 mg/kg/injection, schedule: Q01DX001 (ip), vehicle: Klucel (hydroxypropylcellulose) (HPC)): 100 % of control | T/C (dose: 100.0 mg/kg/injection, schedule: Q01DX001 (ip), vehicle: Klucel (hydroxypropylcellulose) (HPC)): 91 % of control and 92 % of control | T/C (dose: 200.0 mg/kg/injection, schedule: Q01DX001 (ip), vehicle: Klucel (hydroxypropylcellulose) (HPC)): 103 % of control | T/C (dose: 400.0 mg/kg/injection, schedule: Q01DX001 (ip), vehicle: Klucel (hydroxypropylcellulose) (HPC)): 88 % of control

O=C(c1ccc(-c2ccccc2)cc1)c1no[n+]([O-])c1C(=O)c1ccc(-c2ccccc2)cc1
T/C [7]: 96 % of control | T/C [4]: 86 % of control | T/C [8]: 93 % of control | T/C [5]: 98 % of control | T/C [6]: 88 % of control

Cc1cc([N+](=O)[O-])cc(Br)c1N
T/C (dose: 44.0 mg/kg/injection, schedule: Q04DX003 (ip), vehicle: saline with Tween-80): 93 % of control | T/C (dose: 66.0 mg/kg/injection, schedule: Q04DX003 (ip), vehicle: saline with Tween-80): 95 % of control | T/C [4]: 93 % of control | T/C (dose: 150.0 mg/kg/injection, schedule: Q04DX003 (ip), vehicle: saline with Tween-80): 95 % of control
